Measurements as given in patent US20110040086A1, “Novel Beta-Lactam Antibiotics, Methods for Their Production, and Their Use” (DRITTE PATENTPORTFOLIO BETEILIGUNGSGESELLSCHAFT MB, priority 2007, published 2011).

Assays:
[1] = system: Escherichia coli SBUG 1135; assay: agar diffusion test (Test System 1, antimicrobial effect); format: cell-based; set-up: key: r = resistant (no detectable zone of inhibition)
Method in brief: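 Disc diffusion: compound at 10 μg, 50 μg, 100 μg on sensi-discs, three per plate of nutrient agar seeded with ~10^6 E. coli SBUG 1135 (overnight culture, 17 h, 37° C, diluted 1:100). After 20 h incubation at 37° C, zone diameter recorded in mm.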

[2] = system: Staphylococcus aureus ATCC 6538; assay: mouse infected with Staphylococcus aureus infection model (survival); format: in vivo, BALB/c mice
Method in brief: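 Survival model: S. aureus grown to extinction 0.6 at 550 nm and injected i.p. (10 μl/g body weight) into cyclophosphamide-pretreated BALB/c mice (250 then 100 mg/kg i.p.), ≥3 animals per arm. Test antibiotic dosed i.p. at 30 min and again later at the same concentration, vehicle PBS/3% DMSO.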

[3] = system: Bacillus megaterium SBUG 1152; assay: agar diffusion test (Test System 1, antimicrobial effect); format: cell-based
Method in brief: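 Paper discs loaded with 10 μg, 50 μg or 100 μg of test substance (methanol or water solution) placed on nutrient agar seeded with 10^6 cells of a 17-h B. megaterium culture. After 20 h at 37° C., zone of inhibition measured as diameter in mm.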

[4] = system: S. aureus 38418; assay: agar diffusion test (Test System II, multi-resistant germs); format: cell-based, Staphylococcus aureus
Method in brief: (§1)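 Semi-synthetic compounds were tested by disc diffusion at three loadings, 10, 50 and 100 μg per disc. Bacteria at McFarland 0.5 were spread on Müller-Hinton agar II; after 18-20 h at 37 °C the inhibition zone diameter was taken.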

[5] = system: S. aureus ATCC 6538; assay: as above; format: cell-based, Staphylococcus aureus
Method in brief: as §1

[6] = system: Staphylococcus aureus 315; assay: as above; format: cell-based; set-up: key: r = resistant (no detectable zone of inhibition)
Method in brief: as §1

[7] = system: S. aureus 34289; assay: as above; format: cell-based, Staphylococcus aureus; set-up: key: r = resistant (no detectable zone of inhibition)
Method in brief: as §1

[8] = system: S. aureus North Germany strain; assay: as above; format: cell-based, Staphylococcus aureus; set-up: key: r = resistant (no detectable zone of inhibition)
Method in brief: as §1

[9] = system: S. aureus 39105; assay: as above; format: cell-based, Staphylococcus aureus; set-up: key: r = resistant (no detectable zone of inhibition)
Method in brief: as §1

[10] = system: S. aureus 33490; assay: as above; format: cell-based, Staphylococcus aureus; set-up: key: r = resistant (no detectable zone of inhibition)
Method in brief: as §1

[11] = system: S. aureus 526; assay: as above; format: cell-based, Staphylococcus aureus; set-up: key: r = resistant (no detectable zone of inhibition)
Method in brief: as §1

[12] = system: S. aureus 36881; assay: as above; format: cell-based, Staphylococcus aureus; set-up: key: r = resistant (no detectable zone of inhibition)
Method in brief: as §1

[13] = system: S. aureus 520; assay: as above; format: cell-based, Staphylococcus aureus; set-up: key: r = resistant (no detectable zone of inhibition)
Method in brief: as §1

[14] = system: S. epidermidis 125; assay: as above; format: cell-based, Staphylococcus epidermidis
Method in brief: as §1

## 3-chlorine-7-[2-(2-methoxycarbonyl-3,6-dioxocyclohexa-1,4-dienylamino)-2-phenyl-acetylamino]-8-oxo-1-thia-5-azabicyclo[4.2.0]oct-3-en-4-carboxylic acid [1k]
[1]; Quantity n 0.029
  Diameter of zone of inhibition: 18 mm
[1]; Quantity n 0.14
  Diameter of zone of inhibition: 24 mm
[1]; Quantity n 0.29
  Diameter of zone of inhibition: 28 mm
[2]; 2 × 1.5 mg (75 mg/kg) i.p.
  Survival/tested mice n/n: 3/3
[3]; Quantity n 0.029
  Diameter of zone of inhibition: 30 mm
[3]; Quantity n 0.14
  Diameter of zone of inhibition: 36 mm
[3]; Quantity n 0.29
  Diameter of zone of inhibition: 38 mm
[4]; Quantity n [mol] 0.029
  Diameter of zone of inhibition: 22 mm
[4]; Quantity n [mol] 0.14
  Diameter of zone of inhibition: 30 mm
[4]; Quantity n [mol] 0.29
  Diameter of zone of inhibition: 34 mm
[5]; Quantity n 0.029
  Diameter of zone of inhibition: 28 mm
[5]; Quantity n 0.14
  Diameter of zone of inhibition: 36 mm
[5]; Quantity n 0.29
  Diameter of zone of inhibition: 38 mm
[6]; Quantity n 0.029
  Diameter of zone of inhibition: r
[6]; Quantity n 0.14
  Diameter of zone of inhibition: 12 mm
[6]; Quantity n 0.29
  Diameter of zone of inhibition: 14 mm
[7]; Quantity n [mol] 0.029
  Diameter of zone of inhibition: r
[7]; Quantity n [mol] 0.14
  Diameter of zone of inhibition: r
[7]; Quantity n [mol] 0.29
  Diameter of zone of inhibition: r
[8]; Quantity n 0.029
  Diameter of zone of inhibition: r
[8]; Quantity n 0.14
  Diameter of zone of inhibition: 14 mm
[8]; Quantity n 0.29
  Diameter of zone of inhibition: 18 mm
[9]; Quantity n 0.029
  Diameter of zone of inhibition: 8 mm
[9]; Quantity n 0.14
  Diameter of zone of inhibition: 20 mm
[9]; Quantity n 0.29
  Diameter of zone of inhibition: 22 mm
[10]; Quantity n [μmol] 0.029
  Diameter of zone of inhibition: 16 mm
[10]; Quantity n [μmol] 0.14
  Diameter of zone of inhibition: 24 mm
[10]; Quantity n [μmol] 0.29
  Diameter of zone of inhibition: 26 mm
[11]; Quantity n 0.029
  Diameter of zone of inhibition: r
[11]; Quantity n 0.14
  Diameter of zone of inhibition: r
[11]; Quantity n 0.29
  Diameter of zone of inhibition: r
[12]; Quantity n 0.029
  Diameter of zone of inhibition: r
[12]; Quantity n 0.14
  Diameter of zone of inhibition: 14 mm
[12]; Quantity n 0.29
  Diameter of zone of inhibition: 18 mm
[13]; Quantity n [mol] 0.029
  Diameter of zone of inhibition: r
[13]; Quantity n [mol] 0.14
  Diameter of zone of inhibition: r
[13]; Quantity n [mol] 0.29
  Diameter of zone of inhibition: 10 mm
[14]; Quantity n 0.029
  Diameter of zone of inhibition: 20 mm
[14]; Quantity n 0.14
  Diameter of zone of inhibition: 30 mm
[14]; Quantity n 0.29
  Diameter of zone of inhibition: 32 mm

## 7-[2-(2-carbamoyl-3,6-dioxocyclohexa-1,4-dienylamino)-2-(4-hydroxyphenyl)-acetylamino]-desacetoxycephalosporanic acid [1b]
[1]; Quantity n 0.019
  Diameter of zone of inhibition: r
[1]; Quantity n 0.1
  Diameter of zone of inhibition: 14 mm
[1]; Quantity n 0.19
  Diameter of zone of inhibition: 18 mm
[2]; 2 × 1.0 mg (50 mg/kg) i.p.
  Survival/tested mice n/n: 6/6
[3]; Quantity n 0.019
  Diameter of zone of inhibition: 22 mm
[3]; Quantity n 0.1
  Diameter of zone of inhibition: 30 mm
[3]; Quantity n 0.19
  Diameter of zone of inhibition: 32 mm
[4]; Quantity n [mol] 0.019
  Diameter of zone of inhibition: 16 mm
[4]; Quantity n [mol] 0.1
  Diameter of zone of inhibition: 24 mm
[4]; Quantity n [mol] 0.19
  Diameter of zone of inhibition: 26 mm
[5]; Quantity n 0.019
  Diameter of zone of inhibition: 16 mm
[5]; Quantity n 0.1
  Diameter of zone of inhibition: 24 mm
[5]; Quantity n 0.19
  Diameter of zone of inhibition: 28 mm
[6]; Quantity n 0.019
  Diameter of zone of inhibition: r
[6]; Quantity n 0.1
  Diameter of zone of inhibition: r
[6]; Quantity n 0.19
  Diameter of zone of inhibition: 8 mm
[7]; Quantity n [mol] 0.019
  Diameter of zone of inhibition: r
[7]; Quantity n [mol] 0.1
  Diameter of zone of inhibition: r
[7]; Quantity n [mol] 0.19
  Diameter of zone of inhibition: 12 mm
[8]; Quantity n 0.019
  Diameter of zone of inhibition: r
[8]; Quantity n 0.1
  Diameter of zone of inhibition: 8 mm
[8]; Quantity n 0.19
  Diameter of zone of inhibition: 12 mm
[9]; Quantity n 0.019
  Diameter of zone of inhibition: r
[9]; Quantity n 0.1
  Diameter of zone of inhibition: 12 mm
[9]; Quantity n 0.19
  Diameter of zone of inhibition: 18 mm
[10]; Quantity n [μmol] 0.019
  Diameter of zone of inhibition: r
[10]; Quantity n [μmol] 0.1
  Diameter of zone of inhibition: 14 mm
[10]; Quantity n [μmol] 0.19
  Diameter of zone of inhibition: 20 mm
[11]; Quantity n 0.019
  Diameter of zone of inhibition: r
[11]; Quantity n 0.1
  Diameter of zone of inhibition: r
[11]; Quantity n 0.19
  Diameter of zone of inhibition: 12 mm
[12]; Quantity n 0.019
  Diameter of zone of inhibition: r
[12]; Quantity n 0.1
  Diameter of zone of inhibition: 12 mm
[12]; Quantity n 0.19
  Diameter of zone of inhibition: 18 mm
[13]; Quantity n [mol] 0.019
  Diameter of zone of inhibition: r
[13]; Quantity n [mol] 0.1
  Diameter of zone of inhibition: r
[13]; Quantity n [mol] 0.19
  Diameter of zone of inhibition: r
[14]; Quantity n 0.019
  Diameter of zone of inhibition: 14 mm
[14]; Quantity n 0.1
  Diameter of zone of inhibition: 22 mm
[14]; Quantity n 0.19
  Diameter of zone of inhibition: 26 mm

## 7-[2-(2-ethoxycarbonyl-3,6-dioxocyclohexa-1,4-dienylamino)-2-(4-hydroxyphenyl)-acetylamino]-desacetoxycephalosporanic acid [1d]
[1]; Quantity n 0.029
  Diameter of zone of inhibition: r
[1]; Quantity n 0.14
  Diameter of zone of inhibition: 12 mm
[1]; Quantity n 0.29
  Diameter of zone of inhibition: 16 mm
[2]; 2 × 0.5 mg (25 mg/kg) i.p.
  Survival/tested mice n/n: 4/6
[3]; Quantity n 0.029
  Diameter of zone of inhibition: 18 mm
[3]; Quantity n 0.14
  Diameter of zone of inhibition: 30 mm
[3]; Quantity n 0.29
  Diameter of zone of inhibition: 34 mm
[4]; Quantity n [mol] 0.029
  Diameter of zone of inhibition: 10 mm
[4]; Quantity n [mol] 0.14
  Diameter of zone of inhibition: 20 mm
[4]; Quantity n [mol] 0.29
  Diameter of zone of inhibition: 24 mm
[5]; Quantity n 0.029
  Diameter of zone of inhibition: 14 mm
[5]; Quantity n 0.14
  Diameter of zone of inhibition: 22 mm
[5]; Quantity n 0.29
  Diameter of zone of inhibition: 26 mm
[6]; Quantity n 0.029
  Diameter of zone of inhibition: r
[6]; Quantity n 0.14
  Diameter of zone of inhibition: r
[6]; Quantity n 0.29
  Diameter of zone of inhibition: 8 mm
[7]; Quantity n [mol] 0.029
  Diameter of zone of inhibition: r
[7]; Quantity n [mol] 0.14
  Diameter of zone of inhibition: r
[7]; Quantity n [mol] 0.29
  Diameter of zone of inhibition: r
[8]; Quantity n 0.029
  Diameter of zone of inhibition: r
[8]; Quantity n 0.14
  Diameter of zone of inhibition: 10 mm
[8]; Quantity n 0.29
  Diameter of zone of inhibition: 12 mm
[9]; Quantity n 0.029
  Diameter of zone of inhibition: r
[9]; Quantity n 0.14
  Diameter of zone of inhibition: r
[9]; Quantity n 0.29
  Diameter of zone of inhibition: 14 mm
[10]; Quantity n [μmol] 0.029
  Diameter of zone of inhibition: r
[10]; Quantity n [μmol] 0.14
  Diameter of zone of inhibition: 14 mm
[10]; Quantity n [μmol] 0.29
  Diameter of zone of inhibition: 16 mm
[11]; Quantity n 0.029
  Diameter of zone of inhibition: r
[11]; Quantity n 0.14
  Diameter of zone of inhibition: r
[11]; Quantity n 0.29
  Diameter of zone of inhibition: r
[12]; Quantity n 0.029
  Diameter of zone of inhibition: r
[12]; Quantity n 0.14
  Diameter of zone of inhibition: 14 mm
[12]; Quantity n 0.29
  Diameter of zone of inhibition: 18 mm
[13]; Quantity n [mol] 0.029
  Diameter of zone of inhibition: r
[13]; Quantity n [mol] 0.14
  Diameter of zone of inhibition: r
[13]; Quantity n [mol] 0.29
  Diameter of zone of inhibition: r
[14]; Quantity n 0.029
  Diameter of zone of inhibition: 10 mm
[14]; Quantity n 0.14
  Diameter of zone of inhibition: 20 mm
[14]; Quantity n 0.29
  Diameter of zone of inhibition: 24 mm
